Test results: patent US4438031A, “N-(Alkylsulfonyl)-L-proline amide and N-(alkylsulfonyl)-2-carboxylic acid amide-indoline derivatives” (American Home Products Corporation, priority 1982, dated 1984)
Where a name gives a salt, the structure may show the parent alone.

Key:
[1] = oral administration; cited from earlier work
[2] = target: T1, angiotensin converting enzyme (Oryctolagus cuniculus, UniProt P12822); assay: in vitro angiotensin converting enzyme (ACE) inhibition, rabbit lung extract, substrate hippuryl-L-histidyl-L-leucine (Cushman et al.); type: biochemical
T1 construct: The in vitro assay utilizes rabbit lung extract; from tissue; host or cells: rabbit lung extract
T1 sequence (P12822 34-1310): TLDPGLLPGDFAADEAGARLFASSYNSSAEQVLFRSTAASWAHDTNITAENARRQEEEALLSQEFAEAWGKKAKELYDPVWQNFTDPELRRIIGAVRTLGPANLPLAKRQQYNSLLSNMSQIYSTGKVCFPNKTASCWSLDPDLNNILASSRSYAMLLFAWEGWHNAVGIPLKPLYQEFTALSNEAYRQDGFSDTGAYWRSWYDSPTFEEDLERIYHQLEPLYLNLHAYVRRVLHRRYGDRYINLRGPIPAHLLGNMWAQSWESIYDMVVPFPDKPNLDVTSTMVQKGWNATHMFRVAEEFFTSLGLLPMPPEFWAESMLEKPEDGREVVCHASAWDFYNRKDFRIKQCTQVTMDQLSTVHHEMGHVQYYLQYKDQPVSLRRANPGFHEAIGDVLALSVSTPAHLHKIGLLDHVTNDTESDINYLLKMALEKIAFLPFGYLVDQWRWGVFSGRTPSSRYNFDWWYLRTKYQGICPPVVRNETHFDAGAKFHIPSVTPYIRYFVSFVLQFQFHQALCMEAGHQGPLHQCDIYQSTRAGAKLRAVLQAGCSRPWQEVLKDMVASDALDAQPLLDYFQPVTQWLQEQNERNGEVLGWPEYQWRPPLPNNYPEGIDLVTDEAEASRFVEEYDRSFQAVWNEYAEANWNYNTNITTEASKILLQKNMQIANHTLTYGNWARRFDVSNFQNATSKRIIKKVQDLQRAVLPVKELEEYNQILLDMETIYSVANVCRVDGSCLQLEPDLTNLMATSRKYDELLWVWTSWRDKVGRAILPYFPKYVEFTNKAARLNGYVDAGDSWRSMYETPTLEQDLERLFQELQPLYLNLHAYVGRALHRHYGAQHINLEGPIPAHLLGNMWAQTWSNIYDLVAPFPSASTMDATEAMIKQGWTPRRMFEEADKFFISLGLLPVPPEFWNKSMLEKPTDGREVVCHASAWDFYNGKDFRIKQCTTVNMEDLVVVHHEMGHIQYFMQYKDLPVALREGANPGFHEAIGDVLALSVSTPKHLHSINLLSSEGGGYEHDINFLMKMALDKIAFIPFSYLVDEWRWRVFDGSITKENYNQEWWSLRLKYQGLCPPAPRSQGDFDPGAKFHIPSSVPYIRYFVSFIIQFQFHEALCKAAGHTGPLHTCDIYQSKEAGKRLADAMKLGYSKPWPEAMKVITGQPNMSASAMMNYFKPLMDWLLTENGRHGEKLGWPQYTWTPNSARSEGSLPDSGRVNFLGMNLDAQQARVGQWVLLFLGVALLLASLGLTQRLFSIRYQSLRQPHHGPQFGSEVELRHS
Experimental: The angiotensin converting enzyme (ACE) inhibitory property of the compounds is measured in vitro and in vivo. The in vitro assay utilizes rabbit lung extract and a specific tripeptide substrate, hippuryl-L-histidyl-L-leucine being preferred, and follows the method of Cushman et al., Biochem. Pharmacol, 20, 1637-1648 (1971).

[3] = humans with certain forms of hypertension; cited from earlier work

inhibition at 1 µg/mL ([2]; concentration 1000 ng/ml) [%]	inhibition at 0.05 µg/mL ([2]; concentration 50 ng/ml) [%]	Compound	oral activity as an anti-hypertensive agent [1]	other results
80		C[C@H](CSC(=O)c1ccccc1)C(=O)N1CCC[C@H]1C(=O)NS(C)(=O)=O [Example 1, Benzenecarbothioic Acid S-[(2S)-2-Methyl-3-[(2S)-2-[(Methylsulfonylamino)Carbonyl]-1-Pyrrolidinyl]-3-Oxopropyl]Ester, Dicyclohexylamine Salt]		inhibition at 0.1 µg/mL ([2]; concentration 100 ng/ml): 35 to 38%; inhibition of angiotensin converting enzyme ([2]; concentration 100 ng/ml, listed as Example 2): 35-38%
	14 to 21	C[C@H](CSC(=O)c1ccccc1)C(=O)N1CCC[C@H]1C(=O)NS(C)(=O)=O [Example 3, Benzenecarbothioic Acid S-[(2S)-2-Methyl-3-[(2S)-2-[(Methylsulfonylamino)Carbonyl]-1-Pyrrolidinyl]-3-Oxopropyl]Ester]		inhibition of angiotensin converting enzyme ([2]; concentration 100 ng/ml): 31-37%; inhibition of angiotensin converting enzyme ([2]; concentration 1000 ng/ml): 76-80%
89 to 92	32	C[C@H](CS)C(=O)N1CCC[C@H]1C(=O)NS(C)(=O)=O [Example 4, (S)-1-[(2S)-3-Mercapto-2-Methyl-1-Oxopropyl]-N-(Methylsulfonyl)-2-Pyrrolidinecarboxamide]		inhibition of angiotensin converting enzyme ([2]; concentration 50 ng/ml): 50-57%

Second part, the compound before the results:

Compound	inhibition at 1 µg/mL ([2]; concentration 1000 ng/ml) [%]	inhibition at 0.05 µg/mL ([2]; concentration 50 ng/ml) [%]	oral activity as an anti-hypertensive agent [1]	other results
C[C@H](CS)C(=O)N1CCCC1C(=O)O (stereo in doubt) [D-3-mercapto-2-methylpropanoyl-L-proline]			effective when administered orally	
Pyr-Trp-Pro-Arg-Pro-Gln-Ile-Pro-Pro (WPRPQIPP; N-terminal pyroglutamyl; printed: Trp-Pro-Arg-Pro-Gln-Ile-Pro-Pro) [BPP9a]			not orally active	anti-hypertensive effect in clinical studies [3]: effective anti-hypertensive agent
